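1) Cells in 96-well plates. 2) Compound, 48 h, 5 concentrations. 3) Linear interpolation between surrounding doses. 4) Unreached endpoint = highest concentration. TGI denotes the concentration required for complete inhibition of growth.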
What was measured:
Test in all cases: inhibition of tumour cell growth, NCI panel, 48 h
[1] = test system: COLO 205 colon
[2] = test system: NCI-H460 lung
[3] = test system: NCI/ADR-RES ovarian
[4] = test system: NCI-H522 lung
[5] = test system: HOP-92 NSCLC
[6] = test system: PC-3 prostate
[7] = test system: OVCAR-5 ovarian
[8] = test system: SR leukemia
[9] = test system: HCT-116 colon
[10] = test system: IGROV1 ovarian
[11] = test system: A549 NSCLC
[12] = test system: SNB-19 CNS
[13] = test system: HCT-15 colon
[14] = test system: OVCAR-3 ovarian
[15] = test system: MDA-MB-231 breast
[16] = test system: SK-OV-3 ovarian
[17] = test system: TK-10 renal
[18] = test system: MOLT-4 leukemia
[19] = test system: UACC-62 melanoma
[20] = test system: HCC-2998 colon
[21] = test system: MDA-MB-435
[22] = test system: OVCAR-8 ovarian
[23] = test system: LOX IMVI melanoma
[24] = test system: NCI-H226 lung
[25] = test system: OVCAR-4 ovarian
[26] = test system: SF-539 CNS
[27] = test system: UO-31 renal
[28] = test system: HS 578T breast
[29] = test system: SK-MEL-5 melanoma
[30] = test system: MALME-3M melanoma
[31] = test system: UACC-257 melanoma
[32] = test system: K-562 leukemia
[33] = test system: T-47D breast
[34] = test system: RPMI-8226 leukemia
[35] = test system: SF-295 CNS
[36] = test system: RXF 393 renal
[37] = test system: U251 CNS
[38] = test system: 786-0 renal
[39] = test system: SK-MEL-2 melanoma
[40] = test system: HT29 colon
[41] = test system: A498 renal
[42] = test system: NCI-H23 lung
[43] = test system: SF-268 CNS
[44] = test system: M14 melanoma
[45] = test system: DU-145 prostate
[46] = test system: HL-60(TB) leukemia
[47] = test system: HOP-62 NSCLC
[48] = test system: SN12C renal
[49] = test system: EKVX NSCLC
[50] = test system: SW-620 colon
[51] = test system: ACHN renal
[52] = test system: SNB-75 CNS
[53] = test system: MDA-N
[54] = test system: CCRF-CEM leukemia
[55] = test system: SK-MEL-28 melanoma
[56] = test system: CAKI-1 renal
[57] = test system: MCF7 breast
[58] = test system: BT-549 breast
[59] = test system: KM12 colon

N#Cc1[nH]c(=O)n(-c2ccc([N+](=O)[O-])cc2)c1N
TGI [1]: > 10 µM
TGI [2]: > 10 µM
TGI [3]: > 10 µM
TGI [4]: > 10 µM
TGI [5]: > 10 µM
TGI [6]: > 10 µM
TGI [7]: > 10 µM
TGI [8]: > 10 µM
TGI [9]: > 10 µM
TGI [10]: > 10 µM
TGI [11]: > 10 µM
TGI [12]: > 10 µM
TGI [13]: > 10 µM
TGI [14]: > 10 µM
TGI [15]: > 10 µM
TGI [16]: > 10 µM
TGI [17]: > 10 µM
TGI [18]: > 10 µM
TGI [19]: > 10 µM
TGI [20]: > 10 µM
TGI [21]: > 10 µM
TGI [22]: > 10 µM
TGI [23]: > 10 µM
TGI [24]: > 10 µM
TGI [25]: > 10 µM
TGI [26]: > 10 µM
TGI [27]: > 10 µM
TGI [28]: > 10 µM
TGI [29]: > 10 µM
TGI [30]: > 10 µM
TGI [31]: > 10 µM
TGI [32]: > 10 µM
TGI [33]: > 10 µM
TGI [34]: > 10 µM
TGI [35]: > 10 µM
TGI [36]: > 10 µM
TGI [37]: > 10 µM
TGI [38]: > 10 µM
TGI [39]: > 10 µM
TGI [40]: > 10 µM
TGI [41]: > 10 µM
TGI [42]: > 10 µM
TGI [43]: > 10 µM
TGI [44]: > 10 µM
TGI [45]: > 10 µM
TGI [46]: > 10 µM
TGI [47]: > 10 µM
TGI [48]: > 10 µM
TGI [49]: > 10 µM
TGI [50]: > 10 µM
TGI [51]: > 10 µM
TGI [52]: > 10 µM
TGI [53]: > 10 µM
TGI [54]: > 10 µM
TGI [55]: > 10 µM

Oc1c(OCc2nnc(CCCCCCCCc3nnc(COc4ccc5ccccc5c4O)n3Nc3ccccc3)n2Nc2ccccc2)ccc2ccccc12
TGI [1]: 1.32 µM
TGI [2]: 20.5 µM
TGI [3]: 42.6 µM
TGI [4]: 27.3 µM
TGI [5]: 32.3 µM
TGI [6]: 19.2 µM
TGI [7]: 28.5 µM
TGI [9]: 24.8 µM
TGI [10]: 31.5 µM
TGI [11]: 27.8 µM
TGI [12]: 29.8 µM
TGI [56]: 13.8 µM
TGI [13]: 30 µM
TGI [14]: 30.6 µM
TGI [15]: 23.4 µM
TGI [16]: 27.3 µM
TGI [17]: > 64.7 µM
TGI [18]: > 100 µM
TGI [19]: 16.5 µM
TGI [20]: 21.8 µM
TGI [21]: 19.3 µM
TGI [22]: 28.3 µM
TGI [24]: 24.1 µM
TGI [25]: 20.7 µM
TGI [26]: 20 µM
TGI [27]: 19.6 µM
TGI [28]: 22.2 µM
TGI [29]: 3.27 µM
TGI [57]: 68.1 µM
TGI [30]: 28.8 µM
TGI [58]: 25.7 µM
TGI [31]: 25.7 µM
TGI [32]: > 100 µM
TGI [33]: > 100 µM
TGI [34]: 26.7 µM
TGI [35]: 13.9 µM
TGI [36]: 30.9 µM
TGI [37]: 25.5 µM
TGI [38]: 27.4 µM
TGI [39]: 27.6 µM
TGI [40]: 26.2 µM
TGI [41]: 34.3 µM
TGI [42]: 35.2 µM
TGI [43]: 27 µM
TGI [44]: 10.9 µM
TGI [45]: 31.9 µM
TGI [59]: 19 µM
TGI [47]: 3.77 µM
TGI [48]: 29.2 µM
TGI [49]: 31.6 µM
TGI [50]: 24.6 µM
TGI [51]: 68.7 µM
TGI [52]: 35.5 µM
TGI [53]: 12.8 µM
TGI [55]: 14.3 µM

Source: PubChem BioAssay (NCI)
